Measured values reported in article PMC7115586 (European Journal of Medicinal Chemistry, 2013).

Experiments:
[1] = Solubility in methanol or water; assay type: physicochemical; conditions: insufficient to measure the 13C NMR spectrum
[2] = system: a wide variety of DNA and RNA viruses; test: All biological tests; assay type: cell-based; conditions: antiviral and cytostatic tests
[3] = system: feline herpes virus (FHV); assay type: cell-based; conditions: CRFK, read-out: EC50 against feline herpes virus

Row | Compound | solubility in methanol or water [1] | also measured
1 | Cc1cc2ncn(Cc3cn(CCCP(=O)(O)O)nn3)c2cc1C [Compound 31j, 3-{4-[(5,6-Dimethyl-benzimidazol-1-yl)methyl]-1H-1,2,3-triazol-1-yl}propylphosphonic acid] |  | activity in all biological tests [2]: inactive
2 | 3-(4-{[3-Benzoyl-2,4-dioxopyrimidin-1-yl]methyl}-1H-1,2,3-triazol-1-yl)propylphosphonic acid [Compound 31e] |  | activity in all biological tests [2]: inactive
3 | CCOP(=O)(CCCn1cc(Cn2ccc(=O)n(C(=O)c3ccccc3)c2=O)nn1)OCC [Compound 22m, Diethyl 3-(4-{[3-benzoyl-2,4-dioxopyrimidin-1-yl]methyl}-1H-1,2,3-triazol-1-yl)propylphosphonate] |  | EC50 [3]: > 200 µM

Further lines, with some results ahead:

Row | solubility in methanol or water [1] | Compound | also measured
4 | insufficient | Cn1c(=O)c2c(nc(Cl)n2Cc2cn(CCCP(=O)(O)O)nn2)n(C)c1=O [Compound 31g, 3-{4-[(8-Chloro-1,3-dimethyl-2,6-dioxopurin-7-yl)methyl]-1H-1,2,3-triazol-1-yl}propylphosphonic acid] | 
5 | insufficient | Nc1ncnc2c1ncn2Cc1cn(CCCCP(=O)(O)O)nn1 [Compound 32a, 4-(4-{[6-Aminopurin-9-yl]methyl}-1H-1,2,3-triazol-1-yl)butylphosphonic acid] | 
6 | insufficient | 4-(4-{[6-Aminopurin-9-yl]methyl}-1H-1,2,3-triazol-1-yl)butylphosphonic acid [Compound 32b] | 
7 | insufficient | Cn1c(=O)c2c(ncn2Cc2cn(CC(O)P(=O)(O)O)nn2)n(C)c1=O (stereo not shown) [Compound 33i, 3-{4-[(1,3-Dimethyl-2,6-dioxopurin-7-yl)methyl]-1H-1,2,3-triazol-1-yl}-1-hydroxyethyphosphonic acid] | 
